Data as given in US11312692B1, “Polymorphic compounds and uses thereof” (Aldeyra Therapeutics, Inc., priority 2018, dated 2022).
Each block holds one molecule with its values, some of them ahead of it.

Legend:
Format in all cases: physicochemical
[1] = Dynamic Vapour Sorption (DVS) with post-DVS XRPD; settings: for solid form post-DVS by XRPD: after DVS cycles
Protocol: Dynamic Vapour Sorption (DVS): approximately, 10 mg of sample was placed into a mesh vapour sorption balance pan and loaded into a DVS-1 dynamic vapour sorption balance, a DVS Intrinsic dynamic vapour sorption balance or a DVS Advantage dynamic vapour sorption balance by Surface Measurement Systems. The sample was subjected to a ramping profile from 40-90% relative humidity (RH) at 10% increments, maintaining the sample at each step until a stable weight had been achieved (dm/dt 0.004%, minimum step length 30 minutes, maximum step length 500 minutes) at 25° C. After completion of the sorption cycle, the sample was dried using the same procedure to 0% RH and then a second sorption cycle back to 40% RH. Two cycles were performed. The weight change during the sorption/desorption cycles were plotted, allowing for the hygroscopic nature of the sample to be determined. XRPD analysis was then carried out on any solid retained.

[2] = Aqueous solubility at pH 1, 4.5 and 6.8 (HPLC concentration, XRPD of solids); settings: for solubility: thermodynamic from solid, shaken at ambient temperature
Protocol: Approximately 20 mg of each of Compounds 1 and 5-8 was weighed into three 2 mL vials. The appropriate pH buffer was added to achieve pH values of pH 1, 4.5 and 6.8. The pH was measured after buffer addition and the pH adjusted if required back to the appropriate pH. […]

[3] = 1 week stability (40° C./75% RH, 80° C., ambient), XRPD and HPLC purity
Protocol: Scale up of both Forms B and C was carried out on the 200 mg scale. Form B was produced from acetone through evaporation. Characterisation of the solid, indicated the material had long lath-like crystals, with the remaining parameters consistent with the previously produced Form B material. Further analysis of the solid by NMR and mass spectrometry identified the material as an imine.
(§1) Form C material was produced through crash cooling to −18° C. in acetonitrile, the material produced through this scale-up was identified as being similar to the previous Form C material.

[4] = Conversion of solid form on grinding (XRPD)
Protocol: as §1

hygroscopic nature (DVS) ([1]; DVS, 25° C.): slightly hygroscopic
uptake at 90% RH (DVS) ([1]; DVS, 25° C., 90% RH): 0.6%
solid form post-DVS by XRPD [1]: consistent with the input material
SMILES: CC(C)(O)c1cc2oc(-c3ccccc3)nc2cc1N [Compound A, Form A]

solubility ([2]; aqueous buffer, pH 4.5 buffer): ≥ 500 mg/mL
solubility ([2]; aqueous buffer, pH 6.8 buffer): ≥ 500 mg/mL
solubility ([2]; simulated gastric fluid, pH 1 buffer): ≥ 500 mg/mL
SMILES: CC(C)(O)c1cc2oc(-c3ccccc3)nc2cc1N [Compound 1 Form A]

aqueous solubility compared with other salt forms ([2]; versus Form C of Compound 5, Form A of Compound 6, Form B of Compound 7, Form B of Compound 8, pH 1, 4.5, 6.8 buffers, ca. 20 hours, ambient): far more soluble
SMILES: CC(C)(O)c1cc2oc(-c3ccccc3)nc2cc1N.CS(=O)(=O)O [Form A of Compound 1]

hygroscopic nature (DVS) ([1]; DVS, 25° C.): slightly hygroscopic
solid form post-DVS by XRPD [1]: Form A
drop in purity over the stability period ([3]; 1 week, 40° C./75% RH, versus input Form C purity): 0.1%
change in purity over the stability period ([3]; 1 week, 80° C.): no change
change in purity over the stability period ([3]; 1 week, ambient conditions): no change
solid form after 1 week stability by XRPD ([3]; all three conditions (40° C./75% RH, 80° C., ambient)): converted to Form A
solid form when ground [4]: mixture of Forms A and C
SMILES: CC(C)(O)c1cc2oc(-c3ccccc3)nc2cc1N [Compound A, Form C]
